The values that follow come from patent US8026229B2, “Antitumor-active 2-alkoxyestradiol sulfamates” (Sterix Limited, priority 2001, dated 2011).

Structures are written as SMILES. A value given as a limit tells only on which side of the number the result lay.

As usually defined, the IC50 is the midpoint of a concentration-inhibition curve.

The target in test [1] is T1, microtubular protein (tubulin) from porcine brains (Sus scrofa, UniProt P02550+P02554).
T1 construct: Microtubular protein was purified by the method of Shelanski et al; from tissue; host or cells: porcine brain
T1 sequence (P02554 whole entry): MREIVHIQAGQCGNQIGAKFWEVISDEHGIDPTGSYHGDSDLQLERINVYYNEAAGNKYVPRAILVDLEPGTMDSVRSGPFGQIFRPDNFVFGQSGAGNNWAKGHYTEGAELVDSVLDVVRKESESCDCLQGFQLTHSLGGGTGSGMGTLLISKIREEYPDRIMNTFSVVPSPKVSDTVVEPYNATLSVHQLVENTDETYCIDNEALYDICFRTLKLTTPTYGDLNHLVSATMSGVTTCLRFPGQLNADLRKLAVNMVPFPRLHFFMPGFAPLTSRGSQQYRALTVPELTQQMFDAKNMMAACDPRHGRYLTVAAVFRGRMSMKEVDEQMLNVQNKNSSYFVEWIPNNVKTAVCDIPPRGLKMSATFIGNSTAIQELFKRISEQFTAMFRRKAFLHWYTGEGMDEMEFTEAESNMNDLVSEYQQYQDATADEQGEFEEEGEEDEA
T1 sequence (P02550 whole entry): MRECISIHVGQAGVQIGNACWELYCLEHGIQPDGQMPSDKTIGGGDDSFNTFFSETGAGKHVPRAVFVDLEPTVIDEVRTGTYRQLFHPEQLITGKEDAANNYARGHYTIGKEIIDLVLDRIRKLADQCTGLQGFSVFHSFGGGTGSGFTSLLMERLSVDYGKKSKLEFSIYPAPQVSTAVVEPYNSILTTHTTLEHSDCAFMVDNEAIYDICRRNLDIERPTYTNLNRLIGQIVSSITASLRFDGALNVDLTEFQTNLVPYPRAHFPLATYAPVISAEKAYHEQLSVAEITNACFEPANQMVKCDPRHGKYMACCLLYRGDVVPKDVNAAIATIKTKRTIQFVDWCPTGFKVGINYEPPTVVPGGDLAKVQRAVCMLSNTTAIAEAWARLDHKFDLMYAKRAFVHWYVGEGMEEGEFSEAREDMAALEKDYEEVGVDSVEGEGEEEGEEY
In words: Inhibition of tubulin polymerization in vitro (turbidimetry at 340 nm). As to conditions: microtubular protein 1 mg/ml, 0.25 mM GTP, 37° C. Format: biochemical. As for the experimental part:
The inventive compounds were tested in various models. The inventive compounds of general formula I are remarkable in that they inhibit tubulin polymerization more than does 2-methoxyestradiol. The effect on tubulin polymerization was tested in vitro in the following way:
Microtubular protein was purified by the method of Shelanski et al. (Shelanski et al., Proc. Natl. Acad. Sci. USA 1973, 70, 765-8) via cyclic assembly/disassembly from porcine brains. The buffer system used had the following composition: 20 mM PIPES (1,4-piperazinediethanesulfonic acid, pKa 6.8), 80 mM NaCl, 0.5 mM MgCl2, 1 mM EGTA (ethylene glycol bis(2-aminoethyl)tetraacetic acid). Protein concentrations of 1 mg/ml (approx. […] tubulin) were used to test the active substance. The protein was determined by the method of Lowry (Lowry et al., J. Biol. Chem. 1951, 193, 265-75) using bovine serum albumin as standard. The assembly of the microtubuli was carried out in the presence of 0.25 mM GTP and heating of the samples to 37° C.
Microtubulus formation was checked using turbidimetry at a wavelength of 340 nm.
The active substances were tested by adding them at the beginning of the assembly or at the state of equilibrium. Their effectiveness is characterized by deviations in the turbidity curves from those of the control. To check the effect and evaluate the turbidity values measured, a transmission electron microscopic examination (CEM 902 A, Zeiss, Oberkochen, Germany) of the assemblate was always carried out after negative staining with 1% aqueous uranyl acetate.

Test [2] concerns tubulin. The note with it: literature, J. Med. Chem. 1997, 40, 2323-2334; cited from earlier work.

Consider `COc1cc2c(cc1O)CCC1C2CC[C@@]2(C)C1CC[C@@H]2O` (stereo partly shown) [2-Methoxyestradiol], for which the concentration for half-maximal inhibition (IC50) in test [1] is > 3 µM.
Still for that read-out and setting: the same measure for `COc1cc2c(cc1OS(N)(=O)=O)CCC1C2CC[C@]2(C)C(=O)CCC12` (stereo partly shown) [2-Methoxyestrone-3-sulfamate]: 1.6 µM.
Take `CCOc1cc2c(cc1O)CC[C@@H]1[C@@H]2CC[C@]2(C)[C@@H](O)CC[C@@H]12` [2-ethoxyestradiol]: in test [2], the “Activity in inhibition of tubulin polymerization compared with 2-methoxyestradiol” value is reported as “higher than that of 2-methoxyestradiol”.
In turn, `COc1cc2c(cc1OS(N)(=O)=O)CC[C@@H]1[C@@H]2CC[C@]2(C)[C@@H](O)CC[C@@H]12` [Example 1, 2-Methoxy-17β-hydroxy-estra-1,3,5(10)-trien-3-yl sulfamate] showed an IC50 in test [1] of 1 µM.
